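Five compound concentrations were applied to cells in 96-well plates for 48 hours; endpoints were derived by simple linear interpolation of the resulting dose-response curve. GI50: concentration for 50% inhibition of growth.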 Calls of active or inactive are those of the source. No stated cut-off is given here; in the data, active = GI50 up to about 1.1 µM and inactive = higher.
Tests used:
Test in all cases: NCI-60 cell line screen, 48 h
[1] = system: SK-MEL-28
[2] = system: UACC-62
[3] = system: UACC-257
[4] = system: RXF 393
[5] = system: SK-OV-3
[6] = system: NCI-H226
[7] = system: HCT-116
[8] = system: OVCAR-4
[9] = system: RPMI-8226
[10] = system: CCRF-CEM
[11] = system: HOP-62
[12] = system: Hs-578T
[13] = system: MOLT-4
[14] = system: SNB-75
[15] = system: SNB-19
[16] = system: HOP-92
[17] = system: M14
[18] = system: NCI-H522
[19] = system: SK-MEL-5
[20] = system: HCT-15
[21] = system: Malme-3M
[22] = system: MDA-MB-231
[23] = system: K562
[24] = system: NCI/ADR-RES
[25] = system: SW-620
[26] = system: MCF7
[27] = system: OVCAR-5
[28] = system: A549
[29] = system: SR
[30] = system: NCI-H23
[31] = system: ACHN
[32] = system: T47D
[33] = system: UO-31
[34] = system: U-251
[35] = system: OVCAR-8
[36] = system: 786-0
[37] = system: BT-549
[38] = system: IGROV-1
[39] = system: PC-3
[40] = system: COLO 205
[41] = system: MDA-MB-435
[42] = system: OVCAR-3
[43] = system: A498
[44] = system: SF-539
[45] = system: SN12C
[46] = system: DU-145
[47] = system: HCC 2998
[48] = system: EKVX
[49] = system: SF-295
[50] = system: NCI-H460
[51] = system: SK-MEL-2
[52] = system: MDA-N
[53] = system: SF-268
[54] = system: CAKI-1
[55] = system: LOX IMVI
[56] = system: HL-60

COC1CC(N)(c2ccccc2)C(O)C(C)O1 (stereo unspecified) was tested, and the GI50 [1] was > 100 µM (inactive), the GI50 [2] was > 100 µM (inactive) and the GI50 [3] was > 100 µM (inactive). The GI50 [4] was > 100 µM (inactive), the GI50 [5] was > 100 µM (inactive) and the GI50 [6] was > 100 µM (inactive). The GI50 [7] was > 100 µM (inactive), the GI50 [8] was > 100 µM (inactive) and the GI50 [9] was > 100 µM (inactive). For the same compound, the GI50 [10] was > 100 µM (inactive), the GI50 [11] was > 100 µM (inactive) and the GI50 [12] was > 100 µM (inactive). The GI50 [13] was > 100 µM (inactive), the GI50 [14] was > 100 µM (inactive) and the GI50 [15] was > 100 µM (inactive). For the same compound, the GI50 [16] was > 100 µM (inactive), the GI50 [17] was > 100 µM (inactive) and the GI50 [18] was > 100 µM (inactive). For the same compound, the GI50 [19] was > 100 µM (inactive), the GI50 [20] was greater than 100 µM and the GI50 [21] was > 100 µM (inactive). For the same compound, the GI50 [22] was > 100 µM (inactive), the GI50 [23] was > 100 µM (inactive) and the GI50 [24] was > 100 µM (inactive). The GI50 [25] was > 100 µM (inactive), the GI50 [26] was > 100 µM (inactive) and the GI50 [27] was > 100 µM (inactive). The GI50 [28] was > 100 µM (inactive), the GI50 [29] was > 100 µM (inactive) and the GI50 [30] was > 100 µM (inactive). The GI50 [31] was > 100 µM (inactive), the GI50 [32] was > 100 µM (inactive) and the GI50 [33] was > 100 µM (inactive). The GI50 [34] was > 100 µM (inactive), the GI50 [35] was > 100 µM (inactive) and the GI50 [36] was > 100 µM (inactive). For the same compound, the GI50 [37] was > 100 µM (inactive), the GI50 [38] was > 100 µM (inactive) and the GI50 [39] was > 100 µM (inactive). The GI50 [40] was > 100 µM (inactive), the GI50 [41] was > 100 µM (inactive) and the GI50 [42] was > 100 µM (inactive). For the same compound, the GI50 [43] was > 100 µM (inactive), the GI50 [44] was > 100 µM (inactive) and the GI50 [45] was > 100 µM (inactive). The GI50 [46] was > 100 µM (inactive), the GI50 [47] was > 100 µM (inactive) and the GI50 [48] was > 100 µM (inactive). The GI50 [49] was > 100 µM (inactive), the GI50 [50] was > 100 µM (inactive) and the GI50 [51] was > 100 µM (inactive). The GI50 [52] was > 100 µM (inactive), the GI50 [53] was > 100 µM (inactive) and the GI50 [54] was > 100 µM (inactive). The GI50 [55] was > 100 µM (inactive) and the GI50 [56] was > 100 µM (inactive).
